Results: paper PMC11997890, “In Vivo and In Vitro Pharmacokinetic Studies of a Dual Topoisomerase I/II Inhibitor” (ACS Pharmacology & Translational Science, 2025)

Legend:
OvCar8 cells = test: 2D monolayer viability assay (ApoLive-Glo); assay type: cell-based; details: Homo sapiens, OVCAR-8; OvCar8 2D monolayer, 48 h
Method: The efficacy of metabolites can have a significant impact on the efficacy of the drug. […] The therapeutic effect of P8-D6 mono and P8-D6 N-oxide was investigated in vitro in human ovarian cancer 2D monolayers and 3D spheroids (Figures and ). 48 h of treatment of the ovarian cancer cell lines (OvCar8, A2780, Igrov-1) with P8-D6 mono and P8-D6 N-oxide was compared to P8-D6 and cisplatin (study preparation scheme supplied as Figure S5). Both metabolites decreased viability in ovarian cancer cells in a 2D monolayer (Figure A, supplied as Figure S3 A,C).
(§1) The human ovarian cancer cell lines OvCar8, Igrov-1, and A2780, purchased from ATCC, were maintained in RPMI1640 medium, including L-glutamine supplemented with 10% fetal bovine serum and 60 IU/mL penicillin–streptomycin. Cells were grown at 37 °C and 5% CO2 in a humidified incubator and subcultivated at a confluency of 70–80%. Cell line authenticity was checked by STR profiling as described previously, and mycoplasma contamination was routinely investigated using MycoAlert (Lonza).
For the measurements of viability and apoptosis, cells of approximately 8000/well were seeded in a Corning No. 3903 plate and treated with the corresponding drugs for 48 h. After treatment, apoptosis and cell viability assays were performed using an ApoLive-Glo Multiplex Assay Kit (Promega #G6410) according to the manufacturer’s instructions. Fluorescence and luminescence units were measured by using a microplate multimode reader (Spark, Tecan). Relative caspase activity was calculated as caspase activity divided by viability (normalized to control). […] All experiments were performed in biological triplicates. PBS was used as the negative control, and cisplatin and P8-D6 were used as the positive controls.

[1] = In vitro biotransformation of P8-D6 with pig liver fractions; assay type: in vitro ADME; details: for formation of metabolite from P8-D6: 1 mM P8-D6, 150 min
Method: P8-D6 (1 mM) was incubated with postnuclear supernatant (PNS), microsomes, or S9 reaction mixture of various tissue samples (liver, kidney, lung, spleen, and colon) from different donor species (pigs, mice, rats, and humans) for 150 min (study preparation scheme supplied as Figure S5). The commercial human and rat enzymes were subjected to quality control by the supplier. Three phase I metabolites were identified. […] LC-MS and NMR spectroscopic data for the metabolites are given in Supporting Information. Based on the structural characteristics, the metabolites were named as follows: P8-DO (4), P8-D6 N-oxide (6), and P8-D6 mono (8). All metabolites were synthesized to confirm the postulated structure (chapter Synthesis of Metabolites). The extent of metabolism during in vitro incubation was highly dependent on the species (pig > mouse > rat > human) (Figure ).
For all phase I metabolism studies (except cell cultures), a 0.3 mL reaction mixture consisting of 1 mM substrate (P8-D6, P8-D6 mono, P8-D6 N-oxide), 1 mM NADPH as a cofactor, 0.67 mg/mL protein from homogenized tissue or subcellular fractions, respectively (except recombinant enzymes, where 0.5 mg/mL was used), and PBS buffer (pH 7.4) was used. All experiments were performed in biological triplicates. The FDA Guidance for Industry highlights 7 CYP isoenzymes (1A2, 2B6, 2C8, 2C9, 2C19, 2D6, and 3A4/5) which routinely should be tested for metabolism during drug development. Table S1 presents an overview of the tissue material and species as well as the CYP enzymes used in this study. All reactions were carried out at 37 °C in a shaking water bath for 150 min before they were stopped with 0.3 mL of an ice-cold mixture of acetonitrile/methanol (1:1). The suspension was vortexed for 30 s and centrifuged at 15000 g for 5 min, and finally, 10 μL of the supernatant was injected into the HPLC. Control samples were prepared with buffer instead of either protein/tissue, cofactor, or substrate.

[2] = system: OvCar8, A2780, Igrov-1 cells; test: Metabolism in ovarian cancer cell culture supernatants (HPLC); assay type: in vitro ADME, human; details: for total metabolism (sum of all detected metabolites as percentage of the substrate): supernatants of OvCar8, A2780, Igrov-1 after treatment
Method: After treatment, the supernatants of the cell cultures were collected in order to quantify metabolites by HPLC. In Figure 3 C, the total metabolism in % (as the sum of all detected metabolites as a percentage of the substrate) is shown in dependency of the respective treatment. Overall, P8-D6 is always the most metabolized substrate at ∼5%, followed by P8-D6 N-oxide at ∼2.6% and P8-D6 mono at ∼1%. […] In contrast to previous incubation with homogenized tissue (Figure ), P8-D6 was mostly metabolized to P8-DO (2.05%) and to a lesser extent to P8-D6 mono and P8-D6 N-oxide. P8-D6 mono was converted to P8-DO and less extensively metabolized to P8-D6 and a new unknown metabolite (0.10%). Due to the increased polarity and, therefore, decreased HPLC retention time, a nitrone would be thinkable. Such reactions have been described in the literature. − However, due to the very limited content of this metabolite, it could not be identified further. During incubation with P8-D6 N-oxide, P8-D6 features the major metabolite, while P8-D6 mono and P8-DO were formed to a lesser amount. The protein expression of Cyp3A4, mARC1 and 2, and FMO3 in the cell lines used was analyzed by Western blot (Figure 3 E).
as §1

IC50 (OvCar8 cells) [nM] | formation of metabolite from P8-D6 ([1]; pig liver microsomes) [%] | extent of formation lower than P8-D6 N-oxide ([1]; porcine liver microsomes) [fold] | total metabolism (sum of all detected metabolites as percentage of the substrate) [2] [%] | formation of metabolite from P8-D6 ([1]; pig liver PNS) [%] | formation of metabolite from P8-D6 ([1]; pig liver S9-fraction) [%] | metabolite formed from P8-D6 ([2]; OvCar8 supernatant) [%] | Structure (SMILES)
310 | 1.31 | 21.9 | ~1 | – | – | – | CNCCOc1nc2c3cnccc3cc(-c3cc(OC)c(OC)c(OC)c3)c2c2ccncc12 [P8-D6 mono]
1980 | 28.67 | – | ~2.6 | 6.88 | 7.58 | – | COc1cc(-c2cc3ccncc3c3nc(OCC[N+](C)(C)[O-])c4cnccc4c23)cc(OC)c1OC [P8-D6 N-oxide]
– | 0.13 | – | – | – | – | 2.05 | COc1cc(-c2cc3ccncc3c3[nH]c(=O)c4cnccc4c23)cc(OC)c1OC [P8-DO]

Structure (SMILES) | IC50 (OvCar8 cells) [nM] | formation of metabolite from P8-D6 ([1]; pig liver microsomes) [%] | extent of formation lower than P8-D6 N-oxide ([1]; porcine liver microsomes) [fold] | total metabolism (sum of all detected metabolites as percentage of the substrate) [2] [%] | formation of metabolite from P8-D6 ([1]; pig liver PNS) [%] | formation of metabolite from P8-D6 ([1]; pig liver S9-fraction) [%] | metabolite formed from P8-D6 ([2]; OvCar8 supernatant) [%]
COc1cc(-c2cc3ccncc3c3nc(OCCN(C)C)c4cnccc4c23)cc(OC)c1OC [P8-D6, 6-(N,N-dimethyl-2-aminoethoxy)-11-(3,4,5-trimethoxyphenyl)-pyrido[3,4-c][1,9]-phenanthroline] | 270 | – | – | ~5 | – | – | –
